Data on 54 compounds can be found in ChEMBL document CHEMBL1862790, “Optimisation of fenarimol series for the treatment of Chagas disease”.

Data set [1] has as its system Trypanosoma cruzi. Briefly: microbe, parasite or virus in culture. The class given is functional, Tulahuen LacZ, Clone C4. As to conditions: Trypanosoma cruzi, Tulahuen LacZ, Clone C4.
Data set [2] in a line: DNDI: Cytotoxicity against L-6 rat myoblasts from skeletal muscle cells. As to conditions: L6 rat skeletal muscle myoblast cells.
The subject of data set [3] is Trypanosoma cruzi. Kind of data set: microbe, parasite or virus in culture. As to conditions: Trypanosoma cruzi, Tulahuen LacZ, Clone C4. The class given is functional, organism-based, Tulahuen LacZ, Clone C4.

A value given as a limit tells only on which side of the number the result lay.

As to `O=C(C1CC1)N1CCC(NC(c2ccc(C(F)(F)F)cc2)c2cccnc2)CC1` (configuration not stated), the 90% effect level in the data set with Trypanosoma cruzi [1] (IC90) was put at 550 nM. For the same compound, the IC50 in data set [2] (IC50) was over 100000 nM; with Trypanosoma cruzi [3], 150 nM.
As for `CCN(CC)C(=O)N1CCC(NC(c2ccc(C(F)(F)F)cc2)c2cccnc2)CC1` (configuration not stated), in the data set on Trypanosoma cruzi [1], the 90% effect level (IC90) was put at 250 nM. Also, the IC50 in data set [2] (IC50) came to 90800 nM; in the data set with Trypanosoma cruzi [3], 36 nM.
With `OC(c1ccc(Cl)cc1)(c1cccnc1)c1cnc(OC(CF)CF)nc1` (configuration not stated), the IC90 in the data set with Trypanosoma cruzi [1] was found to be 150 nM. For the same compound, the IC50 was over 100000 nM in data set [2] (IC50) and 32 nM in the data set with Trypanosoma cruzi [3].
In the same order, the values of `CC(C)(C)CC(=O)NC1CCN(C(c2ccc(Cl)cc2)c2cccnc2)CC1` (configuration not stated) are 65 nM, over 100000 nM and 8.8 nM.
In turn, `CS(=O)(=O)N1CCC(C(=O)NC(c2ccc(Cl)cc2)c2cccnc2)CC1` (configuration not stated) showed a concentration for an effect of 90% (IC90) in the data set with Trypanosoma cruzi [1] of over 10000 nM. For the same compound, the IC50 in data set [2] (IC50) is over 100000 nM; in the data set with Trypanosoma cruzi [3] it was 6090 nM.
In the same order, the values of `O=C(Nc1ccc(Cl)cc1)NC1CCN(C(c2ccc(Cl)cc2)c2cccnc2)CC1` (configuration not stated) are 30 nM, 21000 nM and 6 nM.
As to `O=C(Oc1ccccc1)N1CCC(NC(c2ccc(Cl)cc2)c2cccnc2)CC1` (configuration not stated), the IC90 in the data set with Trypanosoma cruzi [1] came out at 44 nM. For the same compound, the IC50 came to 60800 nM in data set [2] and 20 nM in the data set on Trypanosoma cruzi [3].
In the data set with Trypanosoma cruzi [1], `O=C(c1ccccc1)N1CCC(NC(c2ccc(C(F)(F)F)cc2)c2cccnc2)CC1` (configuration not stated) came in with an IC90 of 770 nM. Besides, the IC50 in data set [2] (IC50) was determined as 72800 nM; in the data set with Trypanosoma cruzi [3] it was 83 nM.
`O=S1(=O)CCCN1C1CCN(C(c2ccc(Cl)cc2)c2cccnc2)CC1` (configuration not stated): the 90% effect level in the data set on Trypanosoma cruzi [1] (IC90) was put at 100 nM. For the same compound, the IC50 is over 100000 nM in data set [2] (IC50) and 17 nM with Trypanosoma cruzi [3].
On to `O=C(NC1CCCCC1)N1CCC(NC(c2ccc(Cl)cc2)c2cccnc2)CC1` (configuration not stated), for which it took 100 nM to reach the 90% level with Trypanosoma cruzi [1] (IC90). Also, the IC50 is over 100000 nM in data set [2] (IC50) and 30 nM with Trypanosoma cruzi [3].
On the same counts, the results for `CCOC(=O)N1CCN(C(c2cccnc2)c2ccc(Cl)cc2F)CC1` (configuration not stated) are 76 nM, 60400 nM and 24 nM.
On the same counts, the results for `CC(C)(C)CC(=O)N1CCN(C(c2ccc(Cl)cc2)c2cncnc2)CC1` (configuration not stated) are 620 nM, over 100000 nM and 240 nM.
On the same counts, the results for `O=C(Nc1ccccc1)N1CCC(NC(c2ccc(C(F)(F)F)cc2)c2cccnc2)CC1` (configuration not stated) are 380 nM, 64100 nM and 76 nM.
Consider `Nc1ncc(C(O)(c2ccc(Cl)cc2)c2cccnc2)cn1` (configuration not stated), for which the 90% effect level in the data set with Trypanosoma cruzi [1] (IC90) was put at 910 nM. In addition, the IC50 in data set [2] (IC50) was over 100000 nM; in the data set on Trypanosoma cruzi [3], 290 nM.
With `O=C(N1CCCCC1)N1CCC(NC(c2ccc(Cl)cc2)c2cccnc2)CC1` (configuration not stated), in the data set with Trypanosoma cruzi [1], the IC90 stood at 130 nM. Also, the IC50 is over 100000 nM in data set [2] (IC50) and 58 nM with Trypanosoma cruzi [3].
As for `O=C(NC(c1ccc(Cl)cc1)c1cccnc1)c1ccc(C(F)(F)F)cc1` (configuration not stated), in the data set on Trypanosoma cruzi [1], it took 690 nM to reach the 90% level (IC90). Further, the values for the IC50 (in data set [2] (IC50); in the data set with Trypanosoma cruzi [3]) were 62600 nM and 250 nM, respectively.
In the same order, the values of `CC(C)(C)NC(=O)N1CCC(NC(c2ccc(Cl)cc2)c2cccnc2)CC1` (configuration not stated) are 230 nM, over 100000 nM and 60 nM.
On the same counts, the results for `CS(=O)(=O)N1CCC(NC(c2ccc(C(F)(F)F)cc2)c2cccnc2)CC1` (configuration not stated) are 930 nM, over 100000 nM and 190 nM.
On the same counts, the results for `O=C(OCc1ccccc1)N1CCN(C(c2ccc(Cl)cc2)c2cncnc2)CC1` (configuration not stated) are 300 nM, 52100 nM and 150 nM.
For `CC(C)(C)OC(=O)NC1CCN(C(c2ccc(Cl)cc2)c2cncnc2)CC1` (configuration not stated), it took 260 nM to reach the 90% level in the data set on Trypanosoma cruzi [1] (IC90). Also, the IC50 in data set [2] (IC50) is over 100000 nM; in the data set on Trypanosoma cruzi [3], 60 nM.
On the same counts, the results for `CCOC(=O)NC1CCN(C(c2ccc(Cl)cc2)c2cccnc2)CC1` (configuration not stated) are 86 nM, over 100000 nM and 18 nM.
Take `O=C(OCc1ccccc1)N1CCN(C(c2cccnc2)c2ccc(Cl)cc2F)CC1` (configuration not stated): the IC90 in the data set with Trypanosoma cruzi [1] worked out at 88 nM. In addition, the IC50 is 59700 nM in data set [2] (IC50) and 28 nM with Trypanosoma cruzi [3].
In the same order, the values of `O=C(Nc1ccc(Cl)cc1)N1CCC(NC(c2ccc(Cl)cc2)c2cccnc2)CC1` (configuration not stated) are 86 nM, 43400 nM and 25 nM.
In the same order, the values of `CC(C)(C)NC(=O)N1CCN(C(c2cncnc2)c2ccc(Cl)cc2F)CC1` (configuration not stated) are 110 nM, over 100000 nM and 54 nM.
In the same order, the values of `O=C(NC1CCCC1)N1CCN(C(c2ccc(Cl)cc2)c2cncnc2)CC1` (configuration not stated) are 620 nM, over 100000 nM and 230 nM.
Compound `O=C(c1cc(C(O)(c2ccc(Cl)cc2)c2cccnc2)ccc1Cl)N1CCOCC1` (configuration not stated) gave an IC90 in the data set on Trypanosoma cruzi [1] of 470 nM. In addition, the IC50 in data set [2] (IC50) is over 100000 nM; in the data set on Trypanosoma cruzi [3], 120 nM.
`CN(C)C(=O)N1CCC(NC(c2ccc(Cl)cc2)c2cccnc2)CC1` (configuration not stated) showed an IC90 in the data set with Trypanosoma cruzi [1] of 340 nM. In addition, the IC50 in data set [2] (IC50) is over 100000 nM; with Trypanosoma cruzi [3], 170 nM.
`O=C(NC(c1ccc(Cl)cc1)c1cccnc1)c1ccc(Cl)cc1` (configuration not stated) gave an IC90 in the data set with Trypanosoma cruzi [1] of 900 nM. The IC50 in data set [2] (IC50) came out at 58000 nM; in the data set on Trypanosoma cruzi [3] it was 450 nM.
On the same counts, the results for `CCNC(=O)N1CCN(C(c2cncnc2)c2ccc(Cl)cc2F)CC1` (configuration not stated) are 770 nM, over 100000 nM and 290 nM.
In the same order, the values of `NC(=O)c1cccc(C(O)(c2ccc(C(F)(F)F)cc2)c2cccnc2)c1` (configuration not stated) are 300 nM, over 100000 nM and 70 nM.
In the same order, the values of `CC(C)c1ccc(NC(=O)N2CCC(NC(c3ccc(Cl)cc3)c3cccnc3)CC2)cc1` (configuration not stated) are 15 nM, 19700 nM and 5 nM.
As to `O=C(NC1CC1)c1cccc(C(O)(c2ccc(Cl)cc2)c2cccnc2)c1` (configuration not stated), the 90% effect level with Trypanosoma cruzi [1] (IC90) was put at 330 nM. Also, the values for the IC50 (in data set [2] (IC50); in the data set on Trypanosoma cruzi [3]) were 72300 nM and 180 nM, respectively.
In the same order, the values of `CC(C)(C)OC(=O)NC1CCN(C(c2cccnc2)c2ccc(Cl)cc2F)CC1` (configuration not stated) are 46 nM, 55100 nM and 10 nM.
In the same order, the values of `O=C(Nc1ccccc1)NC1CCN(C(c2ccc(Cl)cc2)c2cccnc2)CC1` (configuration not stated) are 75 nM, 75600 nM and 20 nM.
In the same order, the values of `O=C(NC1CCCC1)NC1CCN(C(c2ccc(Cl)cc2)c2cccnc2)CC1` (configuration not stated) are 220 nM, 62600 nM and 60 nM.
Regarding `CC(C)(C)OC(=O)NC1CCN(C(c2cncnc2)c2ccc(Cl)cc2F)CC1` (configuration not stated), it took 190 nM to reach the 90% level with Trypanosoma cruzi [1] (IC90). The IC50 in data set [2] (IC50) was over 100000 nM; in the data set with Trypanosoma cruzi [3], 59 nM.
In the same order, the values of `O=C(c1ccccc1)N1CCC(NC(c2ccc(Cl)cc2)c2cccnc2)CC1` (configuration not stated) are 190 nM, over 100000 nM and 84 nM.
Turning to `O=C(NC1CCN(C(c2ccc(Cl)cc2)c2cccnc2)CC1)c1ccccc1` (configuration not stated), in the data set with Trypanosoma cruzi [1], the IC90 is 430 nM. The IC50 in data set [2] (IC50) was determined as 64100 nM; in the data set on Trypanosoma cruzi [3], 10 nM.
`CN(C)C(=O)NC1CCN(C(c2ccc(Cl)cc2)c2cccnc2)CC1` (configuration not stated): the IC90 in the data set on Trypanosoma cruzi [1] came to 110 nM. Moreover, the IC50 in data set [2] (IC50) was over 100000 nM; in the data set with Trypanosoma cruzi [3], 32 nM.
In the case of `O=C(N1CCCCC1)N1CCN(C(c2ccc(Cl)cc2)c2cncnc2)CC1` (configuration not stated), the IC90 in the data set on Trypanosoma cruzi [1] was 610 nM. The IC50 in data set [2] (IC50) was over 100000 nM; with Trypanosoma cruzi [3] it was 220 nM.
On the same counts, the results for `CCOC(=O)N1CCN(C(c2ccc(Cl)cc2)c2cccnc2)CC1` (configuration not stated) are 120 nM, 83200 nM and 58 nM.
For the compound `CCNC(=O)NC1CCN(C(c2ccc(Cl)cc2)c2cccnc2)CC1` (configuration not stated), the IC90 with Trypanosoma cruzi [1] came out at 300 nM. The IC50 in data set [2] (IC50) was over 100000 nM; with Trypanosoma cruzi [3], 97 nM.
On the same counts, the results for `CCOC(=O)N1CCC(NC(c2ccc(Cl)cc2)c2cccnc2)CC1` (configuration not stated) are 190 nM, over 100000 nM and 70 nM.
In the same order, the values of `CC(C)(C)OC(=O)NC1CCN(C(c2ccc(Cl)cc2)c2cccnc2)CC1` (configuration not stated) are 46 nM, 54000 nM and 8.5 nM.
On the same counts, the results for `CC(C)(C)OC(=O)N1CCC(NC(c2ccc(C(F)(F)F)cc2)c2cccnc2)CC1` (configuration not stated) are 59 nM, 57600 nM and 15 nM.
Consider `CC(C)(C)NC(=O)NC1CCN(C(c2ccc(Cl)cc2)c2cccnc2)CC1` (configuration not stated), for which, in the data set with Trypanosoma cruzi [1], the IC90 worked out at 190 nM. The IC50 in data set [2] (IC50) was over 100000 nM; in the data set with Trypanosoma cruzi [3] it was 63 nM.
In the case of `O=C(C1CC1)N1CCC(NC(c2ccc(Cl)cc2)c2cccnc2)CC1` (configuration not stated), in the data set with Trypanosoma cruzi [1], it took 300 nM to reach the 90% level (IC90). The IC50 was over 100000 nM in data set [2] (IC50) and 180 nM with Trypanosoma cruzi [3].
In the same order, the values of `CC(C)(C)OC(=O)N1CCC(NC(c2ccc(Cl)cc2)c2cccnc2)CC1` (configuration not stated) are 74 nM, 58200 nM and 24 nM.
In the same order, the values of `CC(C)(C)CC(=O)N1CCC(NC(c2ccc(Cl)cc2)c2cccnc2)CC1` (configuration not stated) are 94 nM, over 100000 nM and 31 nM.
On the same counts, the results for `CCN(CC)C(=O)N1CCC(NC(c2ccc(Cl)cc2)c2cccnc2)CC1` (configuration not stated) are 100 nM, over 100000 nM and 36 nM.
Turning to `CC(C)Oc1ccc(C(NC(=O)c2ccc(Cl)cc2)c2cccnc2)cc1` (configuration not stated), it took 330 nM to reach the 90% level in the data set on Trypanosoma cruzi [1] (IC90). In addition, the IC50 in data set [2] (IC50) was 84900 nM; in the data set on Trypanosoma cruzi [3], 150 nM.
In the same order, the values of `CC(C)Oc1ccc(C(O)(c2cccnc2)c2cccc(C(N)=O)c2)cc1F` (configuration not stated) are 270 nM, over 100000 nM and 99 nM.
In the same order, the values of `CC(C)c1ccc(NC(=O)NC2CCN(C(c3ccc(Cl)cc3)c3cccnc3)CC2)cc1` (configuration not stated) are 30 nM, over 100000 nM and 3 nM.
The compound `O=C(NC1CCCCC1)NC1CCN(C(c2ccc(Cl)cc2)c2cccnc2)CC1` (configuration not stated) returned an IC90 in the data set with Trypanosoma cruzi [1] of 110 nM. In addition, the figures for the IC50 (in data set [2] (IC50); in the data set on Trypanosoma cruzi [3]) were 84300 nM and 26 nM, respectively.
